The source of these data is patent US12509434B2, “Optically resolved Trolox intermediate and method for producing same” (PTC THERAPEUTICS, INC., priority 2020, dated 2025).

A value given as a limit tells only on which side of the number the result lay.

A short description of series [1]: Solubility of the crystals in ethyl acetate solvent (reslurry, content of supernatant solution). In kind it is physicochemical. Here is the method:
Solubility of RS-Trolox⋅R-PEA, R-Trolox⋅R-PEA, and S-Trolox⋅R-PEA to Ethyl Acetate Solvent
Each crystal was reslurried by adding ethyl acetate. The solubility was calculated from analyzing the content of supernatant solution of each reaction solution at each temperature.

The nature of series [2]: Solubility of the crystals in amide-based solvents NMP and DMA (reslurry, content of supernatant solution). In kind it is physicochemical. As to conditions: 20 °C. The procedure:
Solubility of R-Trolox⋅R-PEA, S-Trolox⋅R-PEA, and S-Trolox to NMP and DMA
Each crystal was reslurried by adding an amide-based solvent (NMP, DMA). The solubility was calculated from analyzing the content of supernatant solution of each reaction solution at each temperature.

Regarding `C[C@@H](N)c1ccccc1.Cc1c(C)c2c(c(C)c1O)CCC(C)(C(=O)O)O2` (racemic) [rac-Trolox], the “Solubility to ethyl acetate solvent” value in series [1] (0 °C) was found to be 0.02%; in series [1] (15 °C), 0.02%; in series [1] (30 °C) it was 0.07%; in series [1] (45 °C), 0.38%; in series [1] (60 °C) it was 1.08%; in series [1] (75 °C) it was 2.82%.
Consider `Cc1c(C)c2c(c(C)c1O)CC[C@](C)(C(=O)O)O2` [R-Trolox], for which the “Solubility to ethyl acetate solvent” value is reported as 0.07% in series [1] (0 °C); 0.09% in series [1] (15 °C); 0.10% in series [1] (30 °C); 0.40% in series [1] (45 °C); 0.78% in series [1] (60 °C); 0.83% in series [1] (75 °C). Also, the “Solubility [%] DMA” value in series [2] turned out to be 0.4%. In series [2], the “Solubility [%] NMP” value is reported as 0.5%.
Turning to `C[C@@H](N)c1ccccc1.Cc1c(C)c2c(c(C)c1O)CC[C@@](C)(C(=O)O)O2` [S-Trolox], the “Solubility to ethyl acetate solvent” value in series [1] (0 °C) was found to be 2.6%; in series [1] (15 °C), 9.9%; in series [1] (30 °C) it was 14.2%. Besides, the “Solubility [%] DMA” value in series [2] is recorded as at least 10%. Also, the “Solubility [%] NMP” value in series [2] is at least 10%.
With `Cc1c(C)c2c(c(C)c1O)CC[C@@](C)(C(=O)O)O2` [S-Trolox (Free), (S)-6-hydroxy-2,5,7,8-tetramethylchroman-2-carboxylic acid], in series [2], the “Solubility [%] DMA” value is on record as at least 10% and the “Solubility [%] NMP” value is at least 10%.
